Earlier results on one compound are cited in patent US10292931B2, “Stable liquid pharmaceutical composition based on trazodone” (AZIENDE CHIMICHE RIUNITE ANGELINI FRANCESCO A.C.R.A.F. …, priority 2007, dated 2019).

Counter-ions that a name gives are not always drawn. Like-named read-outs stand apart in the source and are kept apart here.

The conditions of data set [1]: room temperature.
For data set [2] the following is noted: 1% (w/v) aqueous solution.

Consider `O=c1n(CCCN2CCN(c3cccc(Cl)c3)CC2)nc2ccccn12` [trazodone hydrochloride], for which the solubility in data set [1] (95% ethanol) was 1.6 g/100 ml; in data set [1] (benzene), “practically insoluble”; in data set [1] (chloroform) it was 3.6 g/100 ml; in data set [1] (ethyl ether) it was “practically insoluble”; in data set [1] (methanol), 2.5 g/100 ml; in data set [1] (octanol), “less than 0.1 g/100 ml”. Also, the values for the solubility result in data set [1] (olive oil) and in data set [1] (water) were “less than 0.1 g/100 ml” and 1.8 g/100 ml, respectively. The “pH of aqueous solution” value in data set [2] is recorded as “approx. 3.90”.
